How the values were obtained:
[1] = Stability study of Compound 1.002 as API (HPLC assay); assay type: physicochemical
Text: The stability of three lots of Compound 1.002 as Active Pharmaceutical Ingredient (API) was studied for a period of 12 months.

[2] = In vitro skin permeation study, mouse skin vs. human skin; assay type: in vitro ADME; conditions: Example 8 gel
Procedure: The gel formulation of Example 8 was used to determine the skin permeation through human and mouse skin. It is important to understand the permeation difference between the two types of skin, because mouse skin is used extensively in toxicology studies as well as in early in vivo studies. The skin permeation study was performed in accordance with the method as described in Example 9.

[3] = Human skin permeation from liquid reservoir transdermal patch over 7 days; assay type: in vitro ADME; conditions: liquid reservoir patch with Table 11 gel
Procedure: Liquid reservoir transdermal patches of FIG. 6 were prepared and used for the study of delivery of Compound 1.002. The transdermal patches were used to deliver Compound 1.002 in vitro through human skin for 7 days from a single patch application. The following gel formulation having composition as shown in Table 11 was prepared according to Example 8 and incorporated into the reservoir patch system.
Patches using the gel formulation having compositions of Table 11 were prepared in accordance with the process shown in FIG. 7. The patch was 1.8 cm^2 in size containing 0.3 mL of the gel formulation. The backing layer of the patch was Scotchpak® 9723, which is a laminate of polyester and polyethylene commonly used in transdermal patches. The controlling membrane was SOLUPOR® 10P05A, which is a highly porous (up to 90% porous) Ultra High Molecular Weight Polyethylene membrane with controlled pore size. The pressure sensitive adhesive in contact with the human skin was […], which is a non-crosslinked acrylate copolymer with no functional groups.
Compound 1.002 was confirmed to metabolize to MTPP by estarases as it permeates through the human skin.

[4] = Viscosity of topical formulation as prepared; assay type: physicochemical; conditions: gel formulation of Example 8 (Table 2)
Procedure: The liquid excipients, i.e. DMSO, oleic acid, Transcutol® P, and dipropylene glycol were mixed in a 20-mL vial, by vortex agitation. The active ingredient, a compound of formula (I), for example Compound 1.002 was then added, and the vial content was sonicated for 10 minutes to dissolve the compound. […] Hydroxylpropyl cellulose (HPC) was added, and the vial was agitated by vortex for another ten minutes to obtain the gel formulation. The viscosity of the clear gel was measured to be in a range of about 7,000 to 10,000 centipoise (cp).
A solution formulation was prepared, similar to the gel formulations as described in Example 8, without a thickening agent. The viscosity of the solution was 13.4 cp and it can be used as a topical spray or lotion.

- Compound 1.002 Purity by a HPLC Assay Method ([1]; Lot-1, 25° C./60% RH, 0 months): 99.5%
- Compound 1.002 Purity by a HPLC Assay Method ([1]; Lot-1, 25° C./60% RH, 3 months): 99.4%
- Compound 1.002 Purity by a HPLC Assay Method ([1]; Lot-1, 25° C./60% RH, 6 months): 99.6%
- Compound 1.002 Purity by a HPLC Assay Method ([1]; Lot-1, 25° C./60% RH, 9 months): 99.8%
- Compound 1.002 Purity by a HPLC Assay Method ([1]; Lot-1, 25° C./60% RH, 12 months): 99.9%
- Compound 1.002 Purity by a HPLC Assay Method ([1]; Lot-1, 40° C./75% RH, 0 months): 99.5%
- Compound 1.002 Purity by a HPLC Assay Method ([1]; Lot-1, 40° C./75% RH, 3 months): 99.2%
- Compound 1.002 Purity by a HPLC Assay Method ([1]; Lot-1, 40° C./75% RH, 6 months): 99.5%
- Compound 1.002 Purity by a HPLC Assay Method ([1]; Lot-2, 40° C./75% RH, 0 months): 99.4%
- Compound 1.002 Purity by a HPLC Assay Method ([1]; Lot-2, 40° C./75% RH, 1 month): 100.0%
- Compound 1.002 Purity by a HPLC Assay Method ([1]; Lot-2, 40° C./75% RH, 2 months): 99.3%
- Compound 1.002 Purity by a HPLC Assay Method ([1]; Lot-2, 40° C./75% RH, 3 months): 97.9%
- Compound 1.002 Purity by a HPLC Assay Method ([1]; Lot-2, 40° C./75% RH, 6 months): 100.0%
- Compound 1.002 Purity by a HPLC Assay Method ([1]; Lot-3, 40° C./75% RH, 0 months): 100.0%
- Compound 1.002 Purity by a HPLC Assay Method ([1]; Lot-3, 40° C./75% RH, 1 month): 100.0%
- Compound 1.002 Purity by a HPLC Assay Method ([1]; Lot-3, 40° C./75% RH, 2 months): 100.0%
- Compound 1.002 Purity by a HPLC Assay Method ([1]; Lot-3, 40° C./75% RH, 3 months): 98.9%
- Compound 1.002 Purity by a HPLC Assay Method ([1]; Lot-3, 40° C./75% RH, 6 months): 100.0%
- Permeation through mouse skin compared with human skin ([2]; 48 hours, FIG. 5): approximately three times higher
- Metabolism of Compound 1.002 to MTPP in human and mouse skin ([2]; both skin types): proceeded equally well
- Compound 1.002 metabolized to MTPP after permeating through the human skin [3]: approximately 85%
- Viscosity of the clear gel [4]: 7,000 to 10,000 centipoise (cp)
Structure (SMILES): CC(=O)Oc1cccc(-c2nc(N3CCOCC3)c3sccc3n2)c1 [Compound 1.002, 3-(4-Morpholinothieno[3,2-d]pyrimidin-2-yl)phenyl Acetate]
